Measurements as given in patent publication US20050124660A1, “Novel medical uses of compounds showing CB1-antagonistic activity and combination treatment involving said compounds” (priority 2003, published 2005).
Like-named read-outs stand apart in the source and are kept apart here. Blank lines part the entries; values can stand above or below the compound they belong to.

Experiments:
[1] = molecular target: T1, porcine pancreatic lipase (Sus scrofa, UniProt P00591); conditions: cited from earlier work; for inhibitory activity, fold stronger than that of THL: porcine pancreatic lipase, relative to THL; for IC50: read-out: IC50 for inhibition of hydrolysis of triolein by porcine pancreatic lipase
T1 sequence (P00591 1-450): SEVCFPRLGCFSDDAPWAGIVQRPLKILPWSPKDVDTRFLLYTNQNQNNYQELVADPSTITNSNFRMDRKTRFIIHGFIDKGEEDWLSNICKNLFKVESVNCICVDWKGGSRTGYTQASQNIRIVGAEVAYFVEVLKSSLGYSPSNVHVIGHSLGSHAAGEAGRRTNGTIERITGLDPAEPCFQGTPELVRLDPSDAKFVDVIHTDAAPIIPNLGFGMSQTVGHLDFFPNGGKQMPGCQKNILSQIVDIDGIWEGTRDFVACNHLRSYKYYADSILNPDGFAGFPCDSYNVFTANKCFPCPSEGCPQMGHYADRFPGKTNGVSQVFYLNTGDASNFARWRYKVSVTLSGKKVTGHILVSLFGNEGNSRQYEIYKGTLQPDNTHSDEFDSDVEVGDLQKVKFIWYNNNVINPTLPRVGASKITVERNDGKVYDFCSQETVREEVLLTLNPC

plasma lipases = conditions: cited from earlier work; for IC50: read-out: IC50 for inhibition of plasma lipases
[2] = tested on: bacterial and fungal lipases; conditions: cited from earlier work
[3] = molecular target: T2, human cannabinoid CB1 receptors (Homo sapiens, UniProt P21554); assay: In vitro CB1 antagonism, functional studies in CHO cells expressing human CB1 receptor; assay type: cell-based
T2 construct: expressed in transfected cells
T2 sequence (P21554 whole entry): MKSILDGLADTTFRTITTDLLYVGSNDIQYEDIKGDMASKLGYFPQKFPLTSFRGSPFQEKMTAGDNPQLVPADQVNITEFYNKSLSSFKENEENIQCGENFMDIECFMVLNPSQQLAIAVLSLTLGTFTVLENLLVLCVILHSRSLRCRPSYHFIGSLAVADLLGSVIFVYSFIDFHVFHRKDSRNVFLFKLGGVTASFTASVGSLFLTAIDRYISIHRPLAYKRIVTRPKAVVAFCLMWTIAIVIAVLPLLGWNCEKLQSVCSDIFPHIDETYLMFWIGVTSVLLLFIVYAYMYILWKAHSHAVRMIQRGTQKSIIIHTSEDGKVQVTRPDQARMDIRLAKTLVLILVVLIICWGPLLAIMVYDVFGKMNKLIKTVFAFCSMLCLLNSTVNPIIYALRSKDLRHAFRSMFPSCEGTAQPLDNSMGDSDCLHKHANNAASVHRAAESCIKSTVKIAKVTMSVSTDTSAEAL
Description: The cannabinoid CB1 antagonistic activity of compounds of the formulas (I), (II), III), (IV) or (V) is also described in the WO 03/026647, WO 03/027076, WO 03/026648 or WO 03/078413, and was determined by functional studies using CHO cells in which human cannabinoid CB1 receptors are stably expressed. Adenylyl cyclase was stimulated using forskolin and measured by quantifying the amount of accumulated cyclic AMP. Concomitant activation of CB1 receptors by CB1 receptor agonists (e.g. CP-55,940 or (R)-WIN-55,212-2) can attenuate the forskolin-induced accumulation of cAMP in a concentration-dependent manner. This CB1 receptor-mediated response can be antagonized by CB1 receptor antagonists such as the compounds used in the present invention.
The cannabinoid CB1 receptor antagonistic, agonistic or partial agonistic activity of compounds e.g. formula (V) of the invention can be also determined by functional studies using the human CB1 receptor cloned in Chinese hamster ovary (CHO) cells according to the following protocol. CHO cells were grown in a DMEM culture medium, supplemented with 10% heat-inactivated fetal calf serum. Medium was aspirated and replaced by DMEM, without fetal calf serum, but containing [^3H]-Arachidonic acid and incubated overnight in a cell culture stove (5% CO2/95% air; 37° C.; water-saturated atmosphere). During this period [^3H]-Arachidonic acid was incorporated in membrane phospholipids. On the test day, medium was aspirated and cells were washed three times using 0.5 ml phosphate-buffered saline, containing 0.2% bovine serum albumin. Stimulation of the CB1 receptor by WIN 55,212-2 led to activation of PLA2 followed by release of [^3H]-Arachidonic acid into the medium. This WIN 55,212-2-induced release was concentration-dependently antagonized by CB1 receptor antagonists.

[4] = molecular target: T3, human cannabis CB1 receptor (Homo sapiens, UniProt P21554); assay: In vitro affinity for cannabinoid CB1 receptors, [3H]CP-55,940 radioligand, CHO cell membrane preparations; assay type: binding
T3 construct: expressed in transfected cells; host or cells: Chinese hamster ovary (CHO) cells, stably transfected; membrane preparation
T3 sequence (P21554 whole entry): as above
Description: After incubation of a freshly prepared cell membrane preparation with the [3H]-ligand, with or without addition of compounds of the invention, separation of bound and free ligand was performed by filtration over glass fibre filters. Radioactivity on the filter was measured by liquid scintillation counting.

[5] = in vivo; cited from earlier work
[6] = cited from earlier work
[7] = cited from earlier work; remark: listed apart in the source
[8] = patients on atypical antipsychotics; cited from earlier work
DTH response = conditions: mice, 0.781-50 mg/kg (i.p.) or 0.5 mg/kg (per os); cited from earlier work
[9] = tested on: carragheenin-induced swelling; conditions: mice; cited from earlier work
[10] = Human cannabinoid-CB1 receptors, read-out: In vitro affinity pK1 value (converted)
[11] = treatment groups 60, 120 and 240 mg

SMILES: CCCCCCCCCC[C@@H]1C(=O)O[C@H]1C[C@H](CCCCCCC)OC(=O)CNC=O [Panclicin D]
- irreversibility of pancreatic lipase inhibition [1]: irreversibly inhibit pancreatic lipase
- inhibitory activity, fold stronger than that of THL [1]: 2 fold
- IC50 [1]: 660 nM
- IC50 (plasma lipases): 250 nM
- inhibition of bacterial and fungal lipases [2]: profiles similar to those for porcine pancreatic lipase

- melting point: 238 to 240 °C (dec.)
SMILES: Cl.O=C(NN1CCCCC1)c1nc(-c2ccc(Cl)cc2)n(-c2ccc(Cl)cc2Cl)n1

SMILES: O=C(NC1CCCCC1)c1nc(-c2ccc(Cl)cc2)n(-c2ccc(Cl)cc2Cl)n1 [Example 3, 5-(4-Chlorophenyl)-N-cyclohexyl-1-(2,4-dichlorophenyl)-1H-1,2,4-triazole-3-carboxamide]
- melting point: 186 to 188 °C
- Kb [3]: 2 nM
- Ki [4, 10]: 126 nM

- melting point: 219 °C
SMILES: O=C(NN1CCCCC1)c1nc(-c2cccnc2)n(-c2ccc(Cl)cc2Cl)n1 [Example 16, 1-(2,4-Dichlorophenyl)-N-(piperidin-1-yl)-5-(pyridin-3-yl)-1H-1,2,4-triazole-3-carboxamide]

- melting point: 234 to 236 °C (dec.)
SMILES: Cl.O=C(NN1CCCC1)c1nc(-c2ccc(Cl)cc2Cl)n(-c2ccc(Cl)cc2)n1

- melting point: 184 to 186 °C
SMILES: O=C(NN1CCOCC1)c1nc(-c2ccc(Cl)cc2)n(-c2ccc(Cl)cc2Cl)n1 [Example 6, 5-(4-Chlorophenyl)-1-(2,4-dichlorophenyl)-N-(morpholin-4-yl)-1H-1,2,4-triazole-3-carboxamide]

SMILES: CCCCCCCCCCCCCCCCOc1nc2ccc(C)cc2c(=O)o1 [ATL-962, 2-hexadecyloxy-6-methyl-4H-3,1-benzoxazin-4-one]
- preclinical toxicity [5]: no toxicity was observed
- subjects with a 3-fold or greater increase in fat excretion compared to placebo ([6]; 50 mg to 300 mg): 55%
- subjects with a 7-fold or greater increase in fat excretion compared to placebo ([6]; 50 mg to 300 mg): 27%
- safety and tolerability ([6]; phase Ib, healthy male volunteers): safe and well tolerated
- weight compared to placebo ([7]; 60, 120 and 240 mg, obese patients): significant reduction in weight
- safety and tolerability ([7]; phase IIb, obese patients): safe and generally well tolerated
- HDL-cholesterol levels [7, 11]: no difference
- LDL-cholesterol [7, 11]: decreased
- Total cholesterol [7, 11]: decreased

SMILES: OCCOCCN1CCN(C2=Nc3ccccc3Sc3ccccc32)CC1 [quetiapine]
- weight change with long-term treatment [8]: smallest

- melting point: 150 to 152 °C
SMILES: CC(C)(C)ONC(=O)c1nc(-c2ccc(Cl)cc2)n(-c2ccc(Cl)cc2Cl)n1

SMILES: Cc1nc2n(c(=O)c1CCN1CCC(c3noc4cc(F)ccc34)CC1)CCCC2 [Risperidone]
- weight change with long-term treatment [8]: modest weight changes that are not dose related

SMILES: CCCCCNC(=O)c1nc(-c2ccc(Cl)cc2Cl)n(-c2ccc(Cl)cc2)n1 [Example 11, 1-(4-Chlorophenyl)-5-(2,4-dichlorophenyl)-N-(n-pentyl)-1H-1,2,4-triazole-3-carboxamide]
- Ki [4]: 501 nM

SMILES: CCCCCCCCCCC[C@@H](C[C@@H]1OC(=O)[C@H]1CCCCCC)OC(=O)[C@H](CC(C)C)NC=O [tetrahydrolipstatin, (2S,3S,5S)-5-((S)-2-4-methylvaleryloxy)-2-heyl-3-hydroxy-hexadecanoic acid lactone]
- fat excreted, average ([6]; 120 mg tid, 5 days, placebo 1.4 g/day): 5.6 (+1-3.8) g/day

SMILES: CCCCCCC[C@@H](C[C@@H]1OC(=O)[C@H]1CCCCCCCC(C)C)OC(=O)[C@H](C)NC=O [Panclicin A]
- irreversibility of pancreatic lipase inhibition [1]: irreversibly inhibit pancreatic lipase
- IC50 [1]: 2900 nM
- IC50 (plasma lipases): 1000 nM
- potency on plasma lipases compared with THL (plasma lipases; relative to THL): same potency as THL
- inhibition of bacterial and fungal lipases [2]: profiles similar to those for porcine pancreatic lipase

SMILES: Cl.O=C(NN1CCCC1)c1nc(-c2ccc(Cl)cc2)n(-c2ccc(Cl)cc2Cl)n1 [Example 2, 5-(4-Chlorophenyl)-1-(2,4-dichlorophenyl)-N-(pyrrolidin-1-yl)-1H-1,2,4-triazole-3-carboxamide hydrochloride]
- melting point: 248 to 255 °C (dec.)
- Kb [3]: 63.1 nM
- Ki [4, 10]: 251 nM

- melting point: 159 to 161 °C
SMILES: O=C(NN1CCCCC1)c1nc(-c2ccc(Cl)cc2Cl)n(-c2ccc(C(F)(F)F)cc2)n1 [Example 14, 5-(2,4-Dichlorophenyl)-N-(piperidin-1-yl)-1-(4-(trifluoromethyl)phenyl)-1H-1,2,4-triazole-3-carboxamide]

SMILES: O=C1Cc2cc(CCN3CCN(c4nsc5ccccc45)CC3)c(Cl)cc2N1 [ziprasidone]
- weight change with long-term treatment [8]: smallest

SMILES: CC[C@@H](C)[C@@H](O)[C@H](C)C(=O)[C@H](C)/C=C(\C)C[C@H](C)[C@@H]1OC(=O)[C@H]1C [Ebelactone A]
- development of DTH response (DTH response): enhances the development of DTH response

- melting point: 191 to 193 °C
SMILES: O=C(NN1CCCCC1)c1nc(-c2ccccn2)n(-c2ccc(Cl)cc2Cl)n1 [Example 13, 1-(2,4-Dichlorophenyl)-5-(pyridin-2-yl)-N-(piperidin-1-yl)-1H-1,2,4-triazole-3-carboxamide]

SMILES: CCCCCCC[C@@H](C[C@@H]1OC(=O)[C@H]1CCCCCCCC(C)C)OC(=O)CNC=O [Panclicin C]
- irreversibility of pancreatic lipase inhibition [1]: irreversibly inhibit pancreatic lipase
- inhibitory activity, fold stronger than that of THL [1]: 2 fold
- IC50 [1]: 620 nM
- IC50 (plasma lipases): 290 nM
- inhibition of bacterial and fungal lipases [2]: profiles similar to those for porcine pancreatic lipase

SMILES: CC[C@@H](C)[C@@H](O)[C@H](C)C(=O)[C@H](C)/C=C(\C)C[C@H](C)[C@@H]1OC(=O)[C@H]1CC [Ebelactone B]
- carragheenin-induced swelling [9]: reduces carragheenin-induced swelling
- development of DTH response (DTH response): enhances the development of DTH response

SMILES: CCCCCNC(=O)c1nc(-c2ccc(Cl)cc2)n(-c2ccc(Cl)cc2Cl)n1 [Example 5, 5-(4-Chlorophenyl)-1-(2,4-dichlorophenyl)-N-(n-pentyl)-1H-1,2,4-triazole-3-carboxamide]
- Ki [4]: 126 nM

SMILES: Cc1cc2c(s1)Nc1ccccc1N=C2N1CCN(C)CC1 [olanzapine]
- weight change with long-term treatment [8]: largest weight gains

SMILES: CCCCCCCCCCCC[C@@H]1C(=O)O[C@H]1C[C@H](CCCCCCC)OC(=O)CNC=O [Panclicin E]
- irreversibility of pancreatic lipase inhibition [1]: irreversibly inhibit pancreatic lipase
- inhibitory activity, fold stronger than that of THL [1]: 2 fold
- IC50 [1]: 890 nM
- IC50 (plasma lipases): 150 nM
- inhibition of bacterial and fungal lipases [2]: profiles similar to those for porcine pancreatic lipase

- melting point: 224 to 226 °C
SMILES: Cl.O=C(NN1CCOCC1)c1nc(-c2ccc(Cl)cc2Cl)n(-c2ccc(Cl)cc2)n1

SMILES: O=C(NC1CCCCC1)c1nc(-c2ccc(Cl)cc2Cl)n(-c2ccc(Cl)cc2)n1 [Example 9, 1-(4-Chlorophenyl)-N-cyclohexyl-5-(2,4-dichlorophenyl)-1H-1,2,4-triazole-3-carboxamide]
- Kb [3]: 6.31 nM
- Ki [4, 10]: 39.8 nM
